The record followed here is patent publication US11566007B2, “Ras inhibitors” (Revolution Medicines, Inc., priority 2019, dated 2023).

One may read the IC50 as the concentration at which inhibition is half-maximal.

Experiment [1] addresses KRAS G12S (Homo sapiens (Human), UniProt P01116+P62937, G12S). The experiment in a line: Ras-Raf (BRAF RBD) disruption / FRET / MOA assay, KRAS G12S. The experiment is classed as biochemical. The note with it: Ras-Raf disruption/FRET/MOA assay; class symbols; read-out: KRAS G12S FRET data IC50. How it is done:
(§1) The purpose of this biochemical assay is to measure the ability of test compounds to facilitate ternary complex formation between a nucleotide-loaded Ras isoform and cyclophilin A; the resulting ternary complex disrupts binding to a BRAF^RBD construct, inhibiting Ras signaling through a RAF effector.
(§2) Compound is present in plate wells as a 10-point 3-fold dilution series starting at a final concentration of 30 μM. After incubation at 25° C. for 3 hours, a mixture of Anti-His Eu-W1024 and anti-GST allophycocyanin is then added to assay sample wells at final concentrations of 10 nM and 50 nM, respectively, and the reaction incubated for an additional 1.5 hours. […] Compounds that facilitate disruption of a Ras:RAF complex are identified as those eliciting a decrease in the TR-FRET ratio relative to DMSO control wells.
(§3) This protocol may also be executed substituting other Ras proteins or nucleotides.
(§4) The purpose of this biochemical assay was to measure the ability of test compounds to facilitate ternary complex formation between a nucleotide-loaded K-Ras isoform and Cyclophilin A; the resulting ternary complex disrupts binding to a BRAF^RBD construct, inhibiting K-Ras signaling through a RAF effector. Data is reported as IC50 values.
(§5) Compound was present in plate wells as a 10-point 3-fold dilution series starting at a final concentration of 30 μM. After incubation at 25° C. for 3 hours, a mixture of Anti-His Eu-W1024 and anti-GST allophycocyanin was then added to assay sample wells at final concentrations of 10 nM and 50 nM, respectively, and the reaction incubated for an additional 1.5 hours. […] Compounds that facilitate disruption of a K-Ras:RAF complex were identified as those eliciting a decrease in the TR-FRET ratio relative to DMSO control wells.

Experiment [2] concerns the target KRAS G12D (Homo sapiens (Human), UniProt P01116+P62937, G12D). The experiment in a line: Ras-Raf (BRAF RBD) disruption / FRET / MOA assay, KRAS G12D. As to conditions: Ras-Raf disruption/FRET/MOA assay; class symbols; read-out: KRAS G12D FRET data IC50. It is filed as biochemical. Here is the method: as §1, §2, §3, §4, §5

Some results are limits rather than exact numbers.

KRAS G12D, sequence (P01116-2 other isoform, or with tags, fused parts or gaps G12D): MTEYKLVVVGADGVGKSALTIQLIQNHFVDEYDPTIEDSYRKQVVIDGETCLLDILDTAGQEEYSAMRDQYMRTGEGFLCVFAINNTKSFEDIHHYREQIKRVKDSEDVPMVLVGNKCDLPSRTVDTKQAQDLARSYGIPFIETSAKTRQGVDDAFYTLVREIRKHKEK
KRAS G12D, sequence (P62937 whole entry): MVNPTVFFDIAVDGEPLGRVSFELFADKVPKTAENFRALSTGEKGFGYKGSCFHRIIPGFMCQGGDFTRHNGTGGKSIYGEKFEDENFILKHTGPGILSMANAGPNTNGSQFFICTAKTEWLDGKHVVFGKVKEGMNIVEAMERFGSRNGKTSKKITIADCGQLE
KRAS G12S, sequence (P01116-2 other isoform, or with tags, fused parts or gaps G12S): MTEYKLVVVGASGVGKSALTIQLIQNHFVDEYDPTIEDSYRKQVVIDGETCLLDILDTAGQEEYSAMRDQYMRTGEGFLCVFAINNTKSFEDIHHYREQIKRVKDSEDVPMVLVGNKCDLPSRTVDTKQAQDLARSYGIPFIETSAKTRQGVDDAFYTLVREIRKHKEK
KRAS G12S, sequence (P62937 whole entry, canonical isoform): as the sequence (P62937 whole entry) above

Regarding `C=CC(=O)N1CC(C(=O)N(C)[C@H](C(=O)N[C@H]2Cc3cc(O)cc(c3)-c3ccc4c(c3)c(c(-c3cccnc3COC)n4CC)CC(C)(C)COC(=O)[C@@H]3CCCN(N3)C2=O)C(C)C)C1` (single isomer, unassigned) [Example A070], the half-maximal inhibitory concentration (IC50) was 0.1 to 1 µM in experiment [1] and 1 to 10 µM in experiment [2]. In the same order, the values of `C=CC(=O)N1CC[C@H](C(=O)N(C)[C@H](C(=O)N[C@H]2Cc3cc(O)cc(c3)-c3ccc4c(c3)c(c(-c3ccccc3CN(C)C)n4CC)CC(C)(C)COC(=O)[C@@H]3CCCN(N3)C2=O)C(C)C)C1` [Example A005] are 0.1 to 1 µM and 1 to 10 µM. Consider `C=CC(=O)N1CC[C@H](C(=O)N(C)[C@H](C(=O)N[C@H]2Cc3cc(O)cc(c3)-c3ccc4c(c3)c(c(-c3ccccc3CCOC)n4CC)CC(C)(C)COC(=O)[C@@H]3CCCN(N3)C2=O)C2CCOCC2)C1` [Example A006], for which the results for the IC50 in experiment [1] and in experiment [2] were 1 to 10 µM and greater than 10 µM, respectively. The corresponding values for `C=CC(=O)N1CC[C@H](C(=O)N(C)[C@H](C(=O)N[C@H]2Cc3cc(OC(=O)CN)cc(c3)-c3ccc4c(c3)c(c(-c3ccccc3CCOC)n4CC)CC(C)(C)COC(=O)[C@@H]3CCCN(N3)C2=O)C(C)C)C1` [Example A008] are 1 to 10 µM and greater than 10 µM. In the same order, the values of `C=CC(=O)N1CC[C@H](C(=O)N(C)[C@H](C(=O)N[C@H]2Cc3cc(cc(O)c3F)-c3ccc4c(c3)c(c(-c3ccccc3CCOC)n4CC)CC(C)(C)COC(=O)[C@@H]3CCCN(N3)C2=O)C(C)C)C1` [Example A009] are greater than 10 µM and greater than 10 µM.

On to `C=CC(=O)N1CC[C@H](C(=O)N(C)[C@H](C(=O)N[C@H]2Cc3cc(O)cc(c3)-c3ccc4c(c3)c(c(-c3ccc(CN5CCCC5)cc3)n4CC)CC(C)(C)COC(=O)[C@@H]3CCCN(N3)C2=O)C(C)C)C1` [Example A010], for which the half-inhibitory concentration (IC50) in experiment [1] is 1 to 10 µM; in experiment [2] it was greater than 10 µM. Turning to `C=CC(=O)N1CCCN(C(=O)N(C)[C@H](C(=O)N[C@H]2Cc3cc(O)cc(c3)-c3ccc4c(c3)c(c(-c3ccccc3CCOC)n4CC)CC(C)(C)COC(=O)[C@@H]3CCCN(N3)C2=O)C(C)C)CC1` [Example A013], the results for the IC50 in experiment [1] and in experiment [2] were 1 to 10 µM and greater than 10 µM, respectively. The corresponding values for `C=CC(=O)N1CCC(C(=O)N(C)[C@H](C(=O)N[C@H]2Cc3cc(O)cc(c3)-c3ccc4c(c3)c(c(-c3ccccc3CCOC)n4CC)CC(C)(C)COC(=O)[C@@H]3CCCN(N3)C2=O)C(C)C)CC1` [Example A014] are 1 to 10 µM and greater than 10 µM. The corresponding values for `C=CC(=O)N1CC[C@H](C(=O)N(C)[C@H](C(=O)N[C@H]2Cc3cc(O)cc(c3)-c3ccc4c(c3)c(c(-c3ccccc3OC)n4CC)CC(C)(C)COC(=O)[C@@H]3CCCN(N3)C2=O)C(C)C)C1` [Example A017] are 1 to 10 µM and greater than 10 µM. As for `C=CC(=O)N1CCN(C(=O)N(C)[C@H](C(=O)N[C@H]2Cc3cc(O)cc(c3)-c3ccc4c(c3)c(c(-c3ccccc3CCOC)n4CC)CC(C)(C)COC(=O)[C@@H]3CCCN(N3)C2=O)C(C)C)CC1` [Example A018], the IC50 in experiment [1] was 1 to 10 µM; in experiment [2], greater than 10 µM. The corresponding values for `C=CC(=O)N1CCC(F)(C(=O)N(C)[C@H](C(=O)N[C@H]2Cc3cc(O)cc(c3)-c3ccc4c(c3)c(c(-c3ccccc3CN(C)C)n4CC)CC(C)(C)COC(=O)[C@@H]3CCCN(N3)C2=O)C(C)C)CC1` [Example A020] are 1 to 10 µM and greater than 10 µM.

`C=CC(=O)N1CC[C@H](C(=O)N(C)[C@H](C(=O)N[C@H]2Cc3cc(O)cc(c3)-c3ccc4c(c3)c(c(-c3ccc(CC(=O)O)cc3)n4CC)CC(C)(C)COC(=O)[C@@H]3CCCN(N3)C2=O)C(C)C)C1` [Example A021]: the IC50 in experiment [1] and in experiment [2] was greater than 10 µM each time.

For `C=CC(=O)N1CC[C@H](C(=O)N(C)[C@H](C(=O)N[C@H]2Cc3cc(O)cc(c3)-c3ccc4c(c3)c(c(-c3ccccc3[C@H](C)OC)n4CC)CC(C)(C)COC(=O)[C@@H]3CCCN(N3)C2=O)C(C)C)C1` [Example A022], the IC50 in experiment [1] lay within 0.1 to 1 µM; in experiment [2], 1 to 10 µM. The corresponding values for `C=CC(=O)N1CC[C@H](C(=O)N(C)[C@H](C(=O)N[C@H]2Cc3cccc(c3)-c3ccc4c(c3)c(c(-c3ccccc3CCOC)n4CC)CC(C)(C)COC(=O)[C@@H]3CCCN(N3)C2=O)C(C)C)C1` [Example A024] are greater than 10 µM and greater than 10 µM. In the same order, the values of `C=CC(=O)N1CC[C@H](C(=O)N(C)[C@H](C(=O)N[C@H]2Cc3cc(O)cc(c3)-c3ccc4c(c3)c(c(-c3ccccc3COC)n4CC)CC(C)(C)COC(=O)[C@@H]3CCCN(N3)C2=O)C2CCCC2)C1` [Example A027] are 0.1 to 1 µM and greater than 10 µM. Regarding `C=CC(=O)N1CC[C@H](C(=O)N(C)[C@H](C(=O)N[C@H]2Cc3cc(O)cc(c3)-c3ccc4c(c3)c(c(-c3ccccc3[C@@H](C)OC)n4CC)CC(C)(C)COC(=O)[C@@H]3CCCN(N3)C2=O)C(C)C)C1` [Example A029], the IC50 in experiment [1] fell in the range of 0.1 to 1 µM; in experiment [2], 1 to 10 µM.

Regarding `C=CC(=O)N1CC[C@H](C(=O)N(C)[C@H](C(=O)N[C@H]2Cc3cc(O)cc(c3)-c3ccc4c(c3)c(c(-c3cccc(CN(C)C)c3)n4CC)CC(C)(C)COC(=O)[C@@H]3CCCN(N3)C2=O)C(C)C)C1` [Example A030], the half-inhibitory concentration (IC50) was 1 to 10 µM in experiment [1] and greater than 10 µM in experiment [2]. `C=CC(=O)N1CC2(CCN([C@H](C(=O)N[C@H]3Cc4cc(O)cc(c4)-c4ccc5c(c4)c(c(-c4ccccc4CCOC)n5CC)CC(C)(C)COC(=O)[C@@H]4CCCN(N4)C3=O)C(C)C)C2=O)C1` [Example A031]: the results for the IC50 in experiment [1] and in experiment [2] were 1 to 10 µM and greater than 10 µM, respectively. `C=CC(=O)N1CC[C@H](C(=O)N(C)[C@H](C(=O)N[C@H]2Cc3cc(OC(=O)CCC(=O)O)cc(c3)-c3ccc4c(c3)c(c(-c3ccccc3CCOC)n4CC)CC(C)(C)COC(=O)[C@@H]3CCCN(N3)C2=O)C(C)C)C1` [Example A032]: the IC50 in experiment [2] was greater than 10 µM. Still for that read-out and setting: then `C=CC(=O)N1CC[C@H](C(=O)N(C)[C@H](C(=O)N[C@H]2Cc3cc(O)cc(c3)-c3ccc4c(c3)c(c(-c3ccccc3CCOC)n4C(C)(C)C#N)CC(C)(C)COC(=O)[C@@H]3CCCN(N3)C2=O)C(C)C)C1` [Example A034], with 1 to 10 µM.

On to `C=CC(=O)N1CC[C@H](C(=O)N(C)[C@H](C(=O)N[C@H]2Cc3cc(O)cc(c3)-c3ccc4c(c3)c(c(-c3ccc(C5CCN(C)CC5)cc3)n4CC)CC(C)(C)COC(=O)[C@@H]3CCCN(N3)C2=O)C(C)C)C1` [Example A039], for which the half-inhibitory concentration (IC50) in experiment [1] and in experiment [2] was 1 to 10 µM in each case. In the case of `C=CC(=O)N1CC[C@H](C(=O)N(C)[C@H](C(=O)N[C@H]2Cc3cc(O)cc(c3)-c3ccc4c(c3)c(c(-c3ccc5c(c3)CCN(C)C5)n4CC)CC(C)(C)COC(=O)[C@@H]3CCCN(N3)C2=O)C(C)C)C1` [Example A040], the IC50 in experiment [1] is 1 to 10 µM; in experiment [2] it was greater than 10 µM. In the same order, the values of `C=CC(=O)N1C[C@H](C)[C@H](C(=O)N(C)[C@H](C(=O)N[C@H]2Cc3cc(O)cc(c3)-c3ccc4c(c3)c(c(-c3ccccc3CCOC)n4CC)CC(C)(C)COC(=O)[C@@H]3CCCN(N3)C2=O)C(C)C)C1` [Example A041] are 0.1 to 1 µM and greater than 10 µM. For the compound `C=CC(=O)N1CC[C@H](C(=O)N(C)[C@H](C(=O)N[C@H]2Cc3cc(O)cc(c3)-c3ccc4c(c3)c(c(-c3cncc(C#N)c3)n4CC)CC(C)(C)COC(=O)[C@@H]3CCCN(N3)C2=O)C(C)C)C1` [Example A062], the 50% inhibitory concentration (IC50) in experiment [2] was greater than 10 µM.

As for `C=CC(=O)N1CC[C@H](C(=O)N(C)[C@H](C(=O)N[C@H]2Cc3cc(O)cc(c3)-c3ccc4c(c3)c(c(-c3cnccc3[C@H](C)OC)n4CC)CC(C)(C)COC(=O)[C@@H]3CCCN(N3)C2=O)C(C)C)C1` [Example A076], in experiment [2], the 50% inhibitory concentration (IC50) was in the range of 0.1 to 1 µM. In the case of `C=CC(=O)N1CC[C@H](C(=O)N(C)[C@H](C(=O)N[C@H]2Cc3cc(O)cc(c3)-c3ccc4c(c3)c(c(-c3cc(F)cnc3COC)n4CC)CC(C)(C)COC(=O)[C@@H]3CCCN(N3)C2=O)C(C)C)C1` [Example A082], the half-inhibitory concentration (IC50) in experiment [2] is 1 to 10 µM. On the same count and under the same terms, with `C=CC(=O)N1CC[C@H](C(=O)N(C)[C@H](C(=O)N[C@H]2Cc3cc(O)cc(c3)-c3ccc4c(c3)c(c(-c3cnccc3COC)n4CC)CC(C)(C)COC(=O)[C@@H]3CCCN(N3)C2=O)C(C)C)C1` [Example A091] the figure was 1 to 10 µM.

For `CCn1c(-c2cccnc2COC)c2c3cc(ccc31)-c1cc(O)cc(c1)C[C@H](NC(=O)[C@H](C(C)C)N(C)C(=O)[C@H]1CCN(C(=O)C#CCN(C)C)C1)C(=O)N1CCC[C@H](N1)C(=O)OCC(C)(C)C2` [Example A096], the 50% inhibitory concentration (IC50) in experiment [2] is 1 to 10 µM. As to `C=CC(=O)N1CC[C@H](C(=O)N(C)[C@H](C(=O)N[C@H]2Cc3cc(O)cc(c3)-c3ccc4c(c3)c(c(-c3ccccc3CO)n4CC)CC(C)(C)COC(=O)[C@@H]3CCCN(N3)C2=O)C(C)C)C1` [Examples A004], in experiment [2], the IC50 was greater than 10 µM.
